The record followed here is ChEMBL document CHEMBL1136387, “Unique spirocyclopiperazinium salt. Part 2: synthesis and structure-activity relationship of dispirocyclopiperazinium salts as analgesics” (Bioorg Med Chem Lett, 2003).

Data set [1] deals with Mus musculus. The experiment in a line: (§1) In vivo analgesic activity evaluated by using acetic acid writhing test in mice administered subcutaneously at a dose of 10 mg/kg. In kind it is functional. As to conditions: sc, route subcutaneous. Background: In writhing tests, fewer writhes than in controls are read as antinociception.
Data set [2] concerns Mus musculus. The experiment in a line: In vivo analgesic activity evaluated by using acetic acid writhing test in mice administered subcutaneously at a dose of 20 mg/kg. In kind it is functional. As to conditions: sc, route subcutaneous.
For data set [3], the system named is Mus musculus. The experiment in a line: In vivo analgesic activity evaluated by using acetic acid writhing test in mice administered subcutaneously at a dose of […]. In kind it is functional. As to conditions: sc, dose 2.5 mg/kg, route subcutaneous.
For data set [4], the system named is Mus musculus. The experiment in a line: (§2) In vivo analgesic activity evaluated by using acetic acid writhing test in mice administered subcutaneously at a dose of 5 mg/kg. The class given is functional. As to conditions: sc, route subcutaneous.
In data set [5] the test system is Mus musculus. The data set is described as follows: (§3) In vivo analgesic activity evaluated by using acetic acid writhing test in mice administered subcutaneously at a dose of 2 mg/kg. Conditions: sc, route subcutaneous. The class given is functional.
Data set [6] relates to Mus musculus. The data set is described as §3. The class given is functional. Conditions: sc, route subcutaneous. This is another data set of the same source.
Data set [7] is described as follows: Toxicity in mice administered subcutaneously. Conditions: mouse, in vivo, sc.
Data set [8] concerns Mus musculus. The description is as §2. The class given is functional. Conditions: sc, route subcutaneous. This is another data set of the same source.
Data set [9] deals with Mus musculus. The data set is described as §1. In kind it is functional. As to conditions: sc, route subcutaneous. This is another data set of the same source.
The species entered for data set [10] is Mus musculus. The data set is described as follows: […]. The class given is functional. As to conditions: sc, route subcutaneous.
Data set [11] has as its system Mus musculus. The experiment in a line: In vivo analgesic activity evaluated by using acetic acid writhing test in mice administered subcutaneously at a dose of 0.05 mg/kg. The class given is functional. Conditions: sc, route subcutaneous.
Data set [12] has as its system Mus musculus. The data set is described as follows: (§4) In vivo analgesic activity evaluated by using acetic acid writhing test in mice administered subcutaneously at a dose of 0.02 mg/kg. The class given is functional. Conditions: sc, route subcutaneous.
The test system of data set [13] is Mus musculus. The data set is described as §4. As to conditions: sc, route subcutaneous. The class given is functional. The source holds these as a separate data set.
Data set [14] concerns Mus musculus. The experiment in a line: (§5) In vivo analgesic activity evaluated by using acetic acid writhing test in mice administered subcutaneously at a dose of 0.2 mg/kg. In kind it is functional. Conditions: sc, route subcutaneous.
Data set [15] has as its system Mus musculus. The data set is described as §5. The class given is functional. As to conditions: sc, route subcutaneous. This is another data set of the same source.

Turning to `CCCCCCOC(CN1CC[N+]2(CCCC2)CC1)CN1CC[N+]2(CCCC2)CC1`, the inhibition in vivo at 10 mg/kg in [1] is 91%. Further, in [2], 20 mg/kg produced 100% inhibition in vivo. This compound also came in with an inhibition in vivo at […] in [3] of 49%. In [4], the inhibition in vivo at 5 mg/kg was 61%.

On to `O=C(CC(=O)N1CC[N+]2(CCCC2)CC1)N1CC[N+]2(CCCC2)CC1.[Br-].[Br-]`, for which the inhibition in vivo at 2 mg/kg in [5] and in data set [6] was 0% throughout. In data set [7], this compound registered a Death dose of 40 mg/kg.

For the compound `C(CN1CC[N+]2(CCCC2)CC1)CN1CC[N+]2(CCCC2)CC1`, the inhibition in vivo at 10 mg/kg in data set [1] was determined as 96%; in data set [9], 4.7%. Further, the inhibition in vivo at 5 mg/kg in data set [8] came to 0%; in data set [4] it was 45.5%.

Consider `CCCCCCCCCCCCCCCCCCOC(CN1CC[N+]2(CCCC2)CC1)CN1CC[N+]2(CCCC2)CC1`, for which the inhibition in vivo at 20 mg/kg in data set [10] came out at 24%.

In data set [2], `CCCCCCCCCCCCOC(CN1CC[N+]2(CCCC2)CC1)CN1CC[N+]2(CCCC2)CC1` displayed an inhibition in vivo at 20 mg/kg of 18%.

Regarding `C[N+]1(C)CCN(C(=O)CCCCC(=O)N2CC[N+](C)(C)CC2)CC1`, in data set [11], the inhibition in vivo at 0.05 mg/kg came to 60.1%.

In [1], `CN1CCN(C(=O)CCCCC(=O)N2CCN(C)CC2)CC1` registered an inhibition in vivo at 10 mg/kg of 10.9%.

Regarding `O=C(CCC(=O)N1CC[N+]2(CCCC2)CC1)N1CC[N+]2(CCCC2)CC1.[Br-].[Br-]`, the results for the inhibition in vivo at 2 mg/kg in [5] and in data set [6] were 47.7% and 0%, respectively. In addition, the Death dose in data set [7] is 20 mg/kg.

`O=C(CCCCC(=O)N1CCNCC1)N1CCNCC1`: the inhibition in vivo at 5 mg/kg in [4] worked out at 34.5%.

For the compound `C(CCCCN1CC[N+]2(CCCC2)CC1)CCCN1CC[N+]2(CCCC2)CC1`, the results for the inhibition in vivo at 2 mg/kg in data set [5] and in data set [6] were 98.6% and 0%, respectively.

On to `O=C(CCCC(=O)N1CC[N+]2(CCCC2)CC1)N1CC[N+]2(CCCC2)CC1.[Br-].[Br-]`, for which the values for the inhibition in vivo at 2 mg/kg in data set [5] and in [6] were 67.4% and 0%, respectively. The Death dose in data set [7] is 20 mg/kg.

In the case of `O=C(CCCCCCC(=O)N1CC[N+]2(CCCC2)CC1)N1CC[N+]2(CCCC2)CC1.[Br-].[Br-]`, the figures for the inhibition in vivo at 0.02 mg/kg in [12] and in data set [13] were 0% and 27.5%, respectively. In [7], the Death dose was found to be 0.2 mg/kg.

`CCOC(CN1CC[N+]2(CCCC2)CC1)CN1CC[N+]2(CCCC2)CC1` registered an inhibition in vivo at 10 mg/kg in data set [1] of 46%. This compound also returned an inhibition in vivo at 20 mg/kg in data set [2] of 90%. Further, the inhibition in vivo at 5 mg/kg in data set [4] is 34%.

With `C(CCCCCN1CC[N+]2(CCCC2)CC1)CCCCN1CC[N+]2(CCCC2)CC1`, the inhibition in vivo at 2 mg/kg in data set [5] was found to be 84.6%; in [6] it was 0%.

On to `C(CCCN1CC[N+]2(CCCC2)CC1)CCN1CC[N+]2(CCCC2)CC1`, for which the inhibition in vivo at 2 mg/kg in [5] worked out at 72.4%; in data set [6], 56.6%.

Turning to `O=C(CCCCCC(=O)N1CC[N+]2(CCCC2)CC1)N1CC[N+]2(CCCC2)CC1.[Br-].[Br-]`, the inhibition in vivo at 0.02 mg/kg in data set [12] and in data set [13] was 0% throughout. In [7], the Death dose is 0.2 mg/kg.

As for `O=C(CCCCC(=O)N1CC[N+]2(CCCC2)CC1)N1CC[N+]2(CCCC2)CC1.[Br-].[Br-]`, the inhibition in vivo at 0.2 mg/kg in [14] was determined as 70.4%; in data set [15], 8.1%. Also, the Death dose in data set [7] amounted to 2 mg/kg.

As usually defined, the inhibition in vivo is the relative decrease from the control value, in per cent. A high value points to a response far below the control.
